In patent publication US10758549B2, “Compositions of obeticholic acid and methods of use” (Intercept Pharmaceuticals, Inc., priority 2015, dated 2020):

Legend:
patients with PBC = assay: Example 9: randomized double-blind placebo-controlled 12-month trial of OCA in PBC; format: in vivo, human; conditions: for Patients who achieved response (ALP<1.67×ULN, ALP reduction ≥15%, TB≤ULN) at Month 6 / Patients who achieved response (ALP<1.67×ULN, ALP reduction ≥15%, TB≤ULN) at Month 12: ITT; for patients who experienced an increase in ALP: 12 months (placebo 36%); for Response at Month 6 [1] / Response at Month 12 [1]: Table 25 analysis; for ALP < 1.67 × ULN and Decrease ≥ 15% at Month 6 [3] / ALP < 1.67 × ULN and Decrease ≥ 15% at Month 12 [3] / ALP < 1.67 × ULN at Month 6 [3] / ALP < 1.67 × ULN at Month 12 [3] / Decrease in ALP ≥ 15% at Month 6 [3] / Decrease in ALP ≥ 15% at Month 12 [3]: patients with Baseline ALP ≥ 1.67 × ULN but < 2.0 × ULN; for ALP < 2.0 × ULN and Decrease ≥ 40% at Month 6 [2] / ALP < 2.0 × ULN and Decrease ≥ 40% at Month 12 [2] / ALP < 2.0 × ULN at Month 6 [2] / ALP < 2.0 × ULN at Month 12 [2] / Decrease in ALP ≥ 40% at Month 6 [2] / Decrease in ALP ≥ 40% at Month 12 [2]: patients with Baseline ALP ≥ 2.0 × ULN
Description: This example describes a randomized, double-blind, placebo-controlled, parallel-group, 12-month trial evaluating OCA in patients with PBC as a monotherapy.
Patients with inflammatory bowel disease or who had undergone gastric bypass procedures were excluded (gastric lap band was acceptable). • Medical conditions that could cause non-hepatic increases in ALP (e.g., Paget's disease)
ALP and TB composite response criteria were measured; a patient was designated as a responder if all three of the following conditions were met: • A value of ALP<1.67×ULN • ALP reduction from baseline ? 15% • A value of TB<ULN
The absolute and percent change from Baseline in ALP, gamma-glutamyl transferase (GGT), alanine aminotransferase (ALT), AST, total bilirubin, conjugated (direct) bilirubin, albumin, prothrombin time and international normalized ratio (INR) at all-time points was measured. The percentage of patients with a decrease in ALP of ? 10%, ? 15%, ? 20%, and ? 40% from Baseline or ? ULN at month 12 was measured. The percentage of patients achieving the following biochemical response criteria was also measured: • ALP ? 3×ULN and AST ? 2×ULN and bilirubin ? ULN ((Corpechot 2008);
Bile acid sequestrant (BAS) concomitant exposure. The primary analysis set used for all efficacy analyses, along with the summarization of disposition along with demographics and baseline characteristics, was the ‘Intent-to-Treat’ (ITT) analysis set. This analysis set included all randomized patients who received at least one dose of blinded study drug. When utilizing this analysis set, patients were analyzed according to the treatment group that they were randomized to regardless of the actual treatment received. It should be noted that all but one randomized patient received at least one dose of blinded study drug.
A Cochran-Mantel-Haenszel (CMH) test which adjusted for both randomization stratification variables as described above, was used for pre-specified analysis. In tandem with the CMH test, a Breslow-Day test was also conducted, to test for the homogeneity of the treatment effect across the different randomization strata.

[1] = normal hepatic function, Fixed; cited from earlier work
[2] = Hepatic impairment study, single dose of 10 mg OCA; format: in vivo, human; conditions: hepatically-impaired patients
Description: The mean total OCA concentration-time profiles in this study are shown in FIG. 16 and the mean PK parameters (Cmax and AUCt) for total OCA in plasma for normal healthy volunteers and subjects with various categories of hepatic impairment are quantified in Table 27.
Development of the PK model for the physiological changes associated with hepatic impairment used 928 plasma sample concentrations of OCA, glyco-OCA, and tauro-OCA from 32 subjects-8 subjects each with mild, moderate, severe hepatic impairment and normal hepatic function. Subjects were administered a single 10 mg dose of OCA. […] Participants were 90.6% white, 3.1% black, 3.1% Asian, and 3.1% other. Mean Child-Pugh Score was 8.0 (2.0) (Child-Pugh Score: Class A/Mild 5-6 points, Class B/Moderate 7-9 points, Class C/Severe 10-15 points). The percentage of BLQ samples with imputed concentrations was 16.8%, 5.4%, and 9.6% for OCA, glyco-OCA, and tauro-OCA, respectively.

[3] = target: T1, farnesoid X receptor (FXR) (Homo sapiens, UniProt Q96RI1); conditions: FXR agonism; cited from earlier work
T1 sequence (Q96RI1 1-486): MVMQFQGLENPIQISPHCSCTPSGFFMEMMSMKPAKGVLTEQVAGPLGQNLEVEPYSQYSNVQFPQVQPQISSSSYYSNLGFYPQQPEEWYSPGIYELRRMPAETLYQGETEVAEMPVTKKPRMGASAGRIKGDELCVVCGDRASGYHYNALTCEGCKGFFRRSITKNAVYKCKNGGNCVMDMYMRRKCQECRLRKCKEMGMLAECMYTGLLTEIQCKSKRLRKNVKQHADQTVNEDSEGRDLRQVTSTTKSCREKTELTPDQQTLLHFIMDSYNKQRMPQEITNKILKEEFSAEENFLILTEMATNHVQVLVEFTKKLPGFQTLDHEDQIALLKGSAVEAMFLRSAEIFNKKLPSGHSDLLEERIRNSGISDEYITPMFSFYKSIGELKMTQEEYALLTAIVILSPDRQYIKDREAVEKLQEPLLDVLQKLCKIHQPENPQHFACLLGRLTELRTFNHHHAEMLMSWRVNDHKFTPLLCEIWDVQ

pKa = format: physicochemical
[4] = 10 mg OCA (N = 73), listed as Obeticholic acid

CC[C@H]1[C@@H](O)[C@@H]2[C@H](CC[C@]3(C)[C@@H]([C@H](C)CCC(=O)O)CC[C@@H]23)[C@@]2(C)CC[C@@H](O)C[C@@H]12 [OCA, 3α,7α-dihydroxy-6α-ethyl-5β-cholan-24-oic acid]
ALP Absolute Change from Baseline to Month 12 (U/L), Mean (patients with PBC; 10 mg OCA): −11|7.1 U/L | ALP Absolute Change from Baseline to Month 12 (U/L), Median (patients with PBC; 10 mg OCA): −99.0 U/L | ALP Percentage Change from Baseline to Month 12 (%), Mean (patients with PBC; 10 mg OCA): −36.4% | ALP Percentage Change from Baseline to Month 12 (%), Median (patients with PBC; 10 mg OCA): −38.3% | Month 12 ALP Concentration (U/L), Mean (patients with PBC; 10 mg OCA): 191.2 U/L | Month 12 ALP Concentration (U/L), Median (patients with PBC; 10 mg OCA): 181.7 U/L | Month 12 ALP Concentration (×ULN), Mean (patients with PBC; 10 mg OCA): 1.606 ×ULN | Month 12 ALP Concentration (×ULN), Median (patients with PBC; 10 mg OCA): 1.527 ×ULN | Patients with ALP < 1.67 × ULN at Month 12 (patients with PBC; 10 mg OCA (N = 73)): (54.8%) | Patients with Decrease in ALP ≥ 10% at Month 12 (patients with PBC; 10 mg OCA (N = 73)): (83.6%) | Patients with Decrease in ALP ≥ 15% at Month 12 (patients with PBC; 10 mg OCA (N = 73)): (78.1%) | Patients with Decrease in ALP ≥ 20% at Month 12 (patients with PBC; 10 mg OCA (N = 73)): (74.0%) | Patients with Decrease in ALP ≥ 40% at Month 12 (patients with PBC; 10 mg OCA (N = 73)): (34.3%) | Patients who achieved response (ALP<1.67×ULN, ALP reduction ≥15%, TB≤ULN) at Month 6 (patients with PBC; 10 mg OCA (N = 73)): 37 (50.7%) | Patients who achieved response (ALP<1.67×ULN, ALP reduction ≥15%, TB≤ULN) at Month 6 (patients with PBC; [4]): 37 (51) % | Patients who achieved response (ALP<1.67×ULN, ALP reduction ≥15%, TB≤ULN) at Month 12 (patients with PBC; [4]): 34 (47) % | Patients with Decrease in ALP ≥ 15% at Month 12 (patients with PBC; 10 mg OCA (N = 73), listed as obeticholic acid): 77% | patients who experienced an increase in ALP (patients with PBC; 10 mg obeticholic acid): 2% | up-titrated patients who met the composite endpoint (patients with PBC; 33 patients titrated from 5 mg to 10 mg at Month 6): 39% | ALP Absolute Change from Baseline to Month 12 (U/L), Median (patients with PBC; OCA Titration): −85.5 U/L | ALP Percentage Change from Baseline to Month 12 (%), Mean (patients with PBC; OCA Titration): −30.5% | ALP Percentage Change from Baseline to Month 12 (%), Median (patients with PBC; OCA Titration): −31.5% | Month 12 ALP Concentration (U/L), Mean (patients with PBC; OCA Titration): 219.5 U/L | Month 12 ALP Concentration (U/L), Median (patients with PBC; OCA Titration): 196.6 U/L | Month 12 ALP Concentration (×ULN), Mean (patients with PBC; OCA Titration): 1.851 ×ULN | Month 12 ALP Concentration (×ULN), Median (patients with PBC; OCA Titration): 1.661 ×ULN | Patients with ALP < 1.67 × ULN at Month 12 (patients with PBC; OCA Titration (N = 70)): (47.1%) | Patients with Decrease in ALP ≥ 10% at Month 12 (patients with PBC; OCA Titration (N = 70)): (78.6%) | Patients with Decrease in ALP ≥ 15% at Month 12 (patients with PBC; OCA Titration (N = 70)): (77.1%) | Patients with Decrease in ALP ≥ 20% at Month 12 (patients with PBC; OCA Titration (N = 70)): (70.0%) | Patients with Decrease in ALP ≥ 40% at Month 12 (patients with PBC; OCA Titration (N = 70)): (30.0%) | Patients with Decrease in ALP ≥ 15% at Month 12 (patients with PBC; OCA Titration (N = 70), listed as obeticholic acid): 77% | Patients who achieved response (ALP<1.67×ULN, ALP reduction ≥15%, TB≤ULN) at Month 6 (patients with PBC; OCA Titration, 5 mg (N = 70)): 24 (34.3%) | Patients who achieved response (ALP<1.67×ULN, ALP reduction ≥15%, TB≤ULN) at Month 6 (patients with PBC; OCA Titration, 5 mg (N = 70), listed as Obeticholic acid): 24 (34) % | Patients who achieved response (ALP<1.67×ULN, ALP reduction ≥15%, TB≤ULN) at Month 12 (patients with PBC; OCA Titration, 5 mg or 10 mg (N = 70), listed as Obeticholic acid): 32 (46) % | Response at Month 6 [1] (patients with PBC; 10 mg OCA (N = 60)): (41.7%) | Response at Month 12 [1] (patients with PBC; 10 mg OCA (N = 60)): (43.3%) | Response at Month 6 [1] (patients with PBC; OCA Titration (N = 60)): (35.0%) | Response at Month 12 [1] (patients with PBC; OCA Titration (N = 60)): (38.3%) | responders who became non-responders (patients with PBC; continued dosing of 5 mg QD, month 6 to month 12): 19% | ALP < 1.67 × ULN and Decrease ≥ 15% at Month 6 [3] (patients with PBC; 10 mg OCA): (88.9%) | ALP < 1.67 × ULN and Decrease ≥ 15% at Month 12 [3] (patients with PBC; 10 mg OCA): (77.8%) | ALP < 1.67 × ULN at Month 6 [3] (patients with PBC; 10 mg OCA): (94.4%) | ALP < 1.67 × ULN at Month 12 [3] (patients with PBC; 10 mg OCA): (88.9%) | Decrease in ALP ≥ 15% at Month 6 [3] (patients with PBC; 10 mg OCA): (88.9%) | Decrease in ALP ≥ 15% at Month 12 [3] (patients with PBC; 10 mg OCA): (77.8%) | ALP < 1.67 × ULN and Decrease ≥ 15% at Month 6 [3] (patients with PBC; OCA Titration): (76.9%) | ALP < 1.67 × ULN and Decrease ≥ 15% at Month 12 [3] (patients with PBC; OCA Titration): (76.9%) | ALP < 1.67 × ULN at Month 6 [3] (patients with PBC; OCA Titration): (76.9%) | ALP < 1.67 × ULN at Month 12 [3] (patients with PBC; OCA Titration): (84.6%) | Decrease in ALP ≥ 15% at Month 6 [3] (patients with PBC; OCA Titration): (84.6%) | Decrease in ALP ≥ 15% at Month 12 [3] (patients with PBC; OCA Titration): (76.9%) | ALP < 2.0 × ULN and Decrease ≥ 40% at Month 6 [2] (patients with PBC; 10 mg OCA): (21.4%) | ALP < 2.0 × ULN and Decrease ≥ 40% at Month 12 [2] (patients with PBC; 10 mg OCA): (28.6%) | ALP < 2.0 × ULN at Month 6 [2] (patients with PBC; 10 mg OCA): (71.4%) | ALP < 2.0 × ULN at Month 12 [2] (patients with PBC; 10 mg OCA): (69.1%) | Decrease in ALP ≥ 40% at Month 6 [2] (patients with PBC; 10 mg OCA): (23.8%) | Decrease in ALP ≥ 40% at Month 12 [2] (patients with PBC; 10 mg OCA): (31.0%) | ALP < 2.0 × ULN and Decrease ≥ 40% at Month 6 [2] (patients with PBC; OCA Titration): (23.4%) | ALP < 2.0 × ULN and Decrease ≥ 40% at Month 12 [2] (patients with PBC; OCA Titration): (27.7%) | ALP < 2.0 × ULN at Month 6 [2] (patients with PBC; OCA Titration): (51.1%) | ALP < 2.0 × ULN at Month 12 [2] (patients with PBC; OCA Titration): (59.6%) | Decrease in ALP ≥ 40% at Month 6 [2] (patients with PBC; OCA Titration): (27.7%) | Decrease in ALP ≥ 40% at Month 12 [2] (patients with PBC; OCA Titration): (34.0%) | patients who experienced an increase in ALP (patients with PBC; titration obeticholic acid): 5% | t13: OCA transport rate from sinusoidal space to liver [1]: 1.62 h⁻¹ | plasma OCA exposures versus healthy subjects [2]: > 10 fold | potency compared to CDCA [3]: approximately 100 fold | pKa (pKa): 4.82
